# Assay results: patent US11395815B2, “Compound for treating osteoarthritis” (Ascentage Pharma (Suzhou) Co., Ltd., priority 2018, dated 2022)
# Columns and labels:
# mouse ACLT model [1] = assay: Pathological evaluation of mouse joints (safranin O staining) in ACLT model; type: in vivo; conditions: intra-articular, joints taken 13 days after first dosing, safranin O sections
# From the text: C57BL/6 mice aged 10 weeks were used for the study (n=12 for each group). Anterior cruciate ligament transection (ACLT) model was used to simulate the pathological condition in OA. To conduct ACLT surgery, the joint capsule of the right rear limb of mice was opened, and the anterior cruciate ligament (ACL) was transected with micro-scissors under a surgical microscope. After irrigation with saline to remove tissue debris, the skin incision was closed. Blank vehicle contained 5% Pluronic F68 (BASF, Germany) in 10 mM phosphate buffered saline (PBS, NaH2PH4/Na2HPO4) with pH adjusted to 7.4. Before each injection and sacrificing at the end point, the function of the limbs was assessed by a weight bearing test. All the mice were sacrificed for pathological evaluation and immunohistochemical staining 13 days after first dosing. Mouse joints were fixed in 4% paraformaldehyde overnight, dehydrated in increasing concentrations of ethanol and embedded in paraffin. Sections (5 μm) were cut from the paraffin blocks and applied to glass slides. The sections were stained for proteoglycans with aqueous safranin O (0.1%) for 5 min, and the specimens were then mounted.
# mouse ACLT model [2] = assay: Weight bearing test in mouse osteoarthritis (ACLT) model; type: in vivo; conditions: for weight bearing % (weight on operated limb versus contralateral unoperated limb): 13 days after first dose
# From the text: C57BL/6 mice aged 10 weeks were used for the study (n=12 for each group). Anterior cruciate ligament transection (ACLT) model was used to simulate the pathological condition in OA. To conduct ACLT surgery, the joint capsule of the right rear limb of mice was opened, and the anterior cruciate ligament (ACL) was transected with micro-scissors under a surgical microscope. After irrigation with saline to remove tissue debris, the skin incision was closed. Blank vehicle contained 5% Pluronic F68 (BASF, Germany) in 10 mM phosphate buffered saline (PBS, NaH2PH4/Na2HPO4) with pH adjusted to 7.4. Before each injection and sacrificing at the end point, the function of the limbs was assessed by a weight bearing test. All the mice were sacrificed for pathological evaluation and immunohistochemical staining 13 days after first dosing. Weight bearing test was conducted using a […] model 600MR (IITC Life Science, CA, USA). Briefly, after calibration of the equipment, mice were placed inside the chamber to stand with each hind paw on a scale, allowed to stand for 5-10 s until the readings were stable. The readings reflected the weight that was placed on each hind limb. The ACLT surgery caused osteoarthritis (OA) and decreased the weight placed on the hind limb. The results were expressed as the percentage of the weight placed on the operated limb versus the contralateral unoperated limb (weight bearing %). The value of weight bearing % is expected to be 100 in healthy mice, indicating the same weight placed on both limbs. The value of weight bearing % will decrease to 50˜60 after ACLT surgery due to less weight that could be placed on the operated limb than the unoperated limb. Alleviation of joint pain by […] should be reflected by an increased value of weight bearing %.
structure (smiles),measurement,setting,value
CCN1[C@@H](C(=O)NC23CCC(C(=O)O)(CC2)CC3)[C@H](c2cccc(Cl)c2F)[C@]2(C(=O)Nc3cc(Cl)ccc32)C12CCCCC2 [compound A],cartilage development,mouse ACLT model [1],increased cartilage development
same,"pathological changes (articular cartilage erosion, proteoglycan loss, thinning and calcification of articular cartilage)",mouse ACLT model [1],attenuated
same,weight bearing % (weight on operated limb versus contralateral unoperated limb),"mouse ACLT model [2]; 0.01 μmol (1 mM, 10 uL) intra-articular, compared with untreated control (P<0.05) and vehicle control (P<0.0001)",significantly increased value of weight bearing %
same,weight bearing % (weight on operated limb versus contralateral unoperated limb),"mouse ACLT model [2]; 0.05 μmol (5 mM, 10 uL) intra-articular, P<0.05 vs 1 mM compound A group",further increase in the value of weight bearing %
same,weight bearing % (weight on operated limb versus contralateral unoperated limb),"mouse ACLT model [2]; C57BL/6 mice, ACLT, intra-articular injection, across doses 0.01 and 0.05 μmol",dose-dependent effect in improving weight bearing %
same,joint pain,"mouse ACLT model [2]; mouse ACLT model, intra-articular injection",significantly relieved the joint pain
